Experiment [1] concerns the target T1, kappa opioid receptor (KOR) (Homo sapiens, UniProt P41145).
T1 construct: host or cells: U2OS (Tango OPRK1-bla U2OS)
Briefly: OPRKappa 1 Tango B-Arrestin Assay, antagonist mode (Tango OPRK1-bla U2OS cells, U50488 EC80 challenge). The class given is cell-based. The settings on record: for Selectivity (MOR/KOR): Kappa selectivity, MOR IC50 / KOR IC50; for pIC50: antagonist mode, Tango OPRK1-bla U2OS cells, 6 nM U50488 challenge. The procedure, abridged:
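Tango OPRK1-bla U2OS cells, β-arrestin recruitment read as β-lactamase FRET (CCF4-AM, 460/590 nm emission). Compounds, 10-point 1:3 series from nominal 10 µM in quadruplicate, preincubated 30 min at 37 °C, then challenged with U50488 at 6 nM final (EC80) for 4 h; percent inhibition from median ratio.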

The next experiment addresses T2, mu opioid receptor (MOR) (Homo sapiens, UniProt P35372).
T2 construct: host or cells: U2OS (Discover X OPRMu1-U2OS, PathHunter)
Put plainly: OPRMu1 Discover X β-arrestin Assay, antagonist mode (U2OS cells, DAMGO EC80 challenge). Type of experiment: cell-based. The procedure, abridged:
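PathHunter U2OS cells with β-gal fragment-complementation readout for β-arrestin recruitment to OPRMu1. Cells were preincubated with compound (10-point, 1:3 series from nominal 10 micromolar) for 30 min at 37 °C, then challenged with 303 nM DAMGO (EC80) for 3 h. Luminescence gave percent inhibition.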

Consider 22 compounds from patent publication US20260115185A1, “QUINOLINE DERIVATIVES WHICH ACT AS KAPPA-OPIOID RECEPTOR ANTAGONISTS” (The Scripps Research Institute, priority 2023, published 2026).

As usually defined, the pIC50 is the negative decadic logarithm of the IC50, by convention in mol/L. Low readings indicate a high IC50, high ones a low IC50.

SMILES strings stand for the structures. pIC50: −log10 of the molar value.

T2 sequence (P35372 whole entry): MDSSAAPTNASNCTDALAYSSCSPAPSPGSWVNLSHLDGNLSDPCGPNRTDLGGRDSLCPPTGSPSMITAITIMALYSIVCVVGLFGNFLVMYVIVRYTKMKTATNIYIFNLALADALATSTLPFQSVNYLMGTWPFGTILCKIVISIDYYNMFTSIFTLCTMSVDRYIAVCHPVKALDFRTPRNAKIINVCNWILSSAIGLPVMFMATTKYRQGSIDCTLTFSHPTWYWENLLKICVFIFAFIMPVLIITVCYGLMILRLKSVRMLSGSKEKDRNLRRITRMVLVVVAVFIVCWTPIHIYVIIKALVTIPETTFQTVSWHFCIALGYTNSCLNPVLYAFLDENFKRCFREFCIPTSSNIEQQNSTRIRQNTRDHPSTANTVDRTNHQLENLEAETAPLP
T1 sequence (P41145 whole entry): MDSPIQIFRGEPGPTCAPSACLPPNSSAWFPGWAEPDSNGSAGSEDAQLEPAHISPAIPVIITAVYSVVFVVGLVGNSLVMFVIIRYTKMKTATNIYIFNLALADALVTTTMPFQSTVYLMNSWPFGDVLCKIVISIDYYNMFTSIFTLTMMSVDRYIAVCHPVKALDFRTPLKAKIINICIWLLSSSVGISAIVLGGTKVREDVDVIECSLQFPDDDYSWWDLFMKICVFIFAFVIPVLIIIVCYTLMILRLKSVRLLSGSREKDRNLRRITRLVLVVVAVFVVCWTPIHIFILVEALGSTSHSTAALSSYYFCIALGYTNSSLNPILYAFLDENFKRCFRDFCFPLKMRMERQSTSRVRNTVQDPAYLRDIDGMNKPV

Regarding `CCc1cc(F)c2nc(N3CCN(C(=O)CN4CCCC4)C[C@H]3C)c(-c3ccn(C)n3)c(C)c2c1` [Compound 173], in experiment [1], the “Selectivity (MOR/KOR)” value was “+++ (between 100- to 1000-fold selective)” and the pIC50 is 8.00 to 9.00. Further, on mu opioid receptor (MOR), the pIC50 was 6.00 to 7.00.

`CCc1cc(F)c2nc(N3CCN(C(=O)[C@H](C)N(CC)CC)C[C@H]3C)c(-c3ccn(C)n3)c(C)c2c1` [Compound 174]: in experiment [1], the “Selectivity (MOR/KOR)” value was “+++ (between 100- to 1000-fold selective)” and the pIC50 was 7.00 to 8.00. The compound also gave a pIC50 against mu opioid receptor (MOR) of less than 6.00.

With `CCc1cc(F)c2nc(N3CCN(C(=O)[C@@H]4CCCN4C)C[C@H]3C)c(-c3ccn(C)n3)c(C)c2c1` [Compound 175], the “Selectivity (MOR/KOR)” value in experiment [1] is given as “+++ (between 100- to 1000-fold selective)”. Further, the pIC50 in experiment [1] is 7.00 to 8.00; against mu opioid receptor (MOR), less than 6.00.

Turning to `CCc1cc(F)c2nc(N3CCN(C(=O)CN(CC)CC)C[C@H]3C)c(-c3ccn(C)n3)c(C)c2c1` [Compound 176], the “Selectivity (MOR/KOR)” value in experiment [1] is “+++ (between 100- to 1000-fold selective)”. In addition, the pIC50 in experiment [1] is 8.00 to 9.00; on mu opioid receptor (MOR) it was less than 6.00.

Take `CCc1cc(F)c2nc(N3CCN(C(=O)[C@@H]4C[C@@H](O)CN4C)C[C@H]3C)c(-c3ccn(C)n3)c(C)c2c1` [Compound 177]: in experiment [1], the “Selectivity (MOR/KOR)” value is recorded as “+++ (between 100- to 1000-fold selective)” and the pIC50 was not above 7.00. The compound further showed a pIC50 at mu opioid receptor (MOR) of less than 6.00.

`CCc1cc(F)c2nc(N3CCN(C(=O)[C@H](CO)N(C)C)C[C@H]3C)c(-c3ccn(C)n3)c(C)c2c1` [Compound 178]: in experiment [1], the “Selectivity (MOR/KOR)” value is recorded as “+++ (between 100- to 1000-fold selective)” and the pIC50 was 7.00 to 8.00. Also, the pIC50 against mu opioid receptor (MOR) was less than 6.00.

Consider `CCc1cc(F)c2nc(N3CCN(C(=O)C(C)(C)N4CCCC4)C[C@H]3C)c(-c3cc(C)no3)c(C)c2c1` [Compound 179], for which, in experiment [1], the “Selectivity (MOR/KOR)” value was “++ (between 10- and 100-fold selectivity)”; the pIC50 was 7.00 to 8.00. For the same compound, the pIC50 against mu opioid receptor (MOR) is less than 6.00.

Turning to `CCc1cc(F)c2nc(N3CCN(C(=O)[C@@H](C)N(CC)CC)C[C@H]3C)c(-c3cc(C)no3)c(C)c2c1` [Compound 180], in experiment [1], the “Selectivity (MOR/KOR)” value is “+++ (between 100- to 1000-fold selective)” and the pIC50 was 8.00 to 9.00. This compound also showed a pIC50 at mu opioid receptor (MOR) of less than 6.00.

Turning to `CCc1cc(F)c2nc(N3CCN(C(=O)CN(C)C)C[C@H]3C)c(-c3cc(C)no3)c(C)c2c1` [Compound 181], in experiment [1], the “Selectivity (MOR/KOR)” value is given as “+++ (between 100- to 1000-fold selective)” and the pIC50 is 7.00 to 8.00. For the same compound, the pIC50 against mu opioid receptor (MOR) is less than 6.00.

Take `CCc1cc(F)c2nc(N3CCN(C(=O)[C@H]4CCCN4C)C[C@H]3C)c(-c3nc(C)no3)c(C)c2c1` [Compound 183]: in experiment [1], the “Selectivity (MOR/KOR)” value was “++++ (more than 1000-fold selectivity over MOR)” and the pIC50 was 8.00 to 9.00. For the same compound, the pIC50 at mu opioid receptor (MOR) was less than 6.00.

As for `CCc1cc(F)c2nc(N3CCN(C(=O)[C@H]4COCCN4C)C[C@H]3C)c(-c3nc(C)no3)c(C)c2c1` [Compound 184], in experiment [1], the “Selectivity (MOR/KOR)” value is listed as “+++ (between 100- to 1000-fold selective)” and the pIC50 is 7.00 to 8.00. On mu opioid receptor (MOR), this compound had a pIC50 of less than 6.00.

For the compound `CCc1cc(F)c2nc(N3CCN(C(=O)[C@@H]4COCCN4C)C[C@H]3C)c(-c3nc(C)no3)c(C)c2c1` [Compound 185], in experiment [1], the “Selectivity (MOR/KOR)” value is on record as “+++ (between 100- to 1000-fold selective)” and the pIC50 was 7.00 to 8.00. Further, the pIC50 on mu opioid receptor (MOR) was less than 6.00.

Take `CCc1cc(F)c2nc(N3CCN(CCC4CC(F)(F)C4)C[C@H]3C)c(-c3nc(C)no3)c(C)c2c1` [Compound 186]: in experiment [1], the “Selectivity (MOR/KOR)” value is listed as “+++ (between 100- to 1000-fold selective)” and the pIC50 is 8.00 to 9.00. The pIC50 on mu opioid receptor (MOR) was 6.00 to 7.00.

For the compound `CCc1cc(F)c2nc(N3CCC(OCCN4CCCC4)CC3)c(-c3nc(C)no3)c(C)c2c1` [Compound 187], in experiment [1], the “Selectivity (MOR/KOR)” value is listed as “+++ (between 100- to 1000-fold selective)” and the pIC50 is 7.00 to 8.00. In addition, the pIC50 against mu opioid receptor (MOR) was less than 6.00.

On to `CCc1cc(F)c2nc(N3CCN(C(=O)[C@@H]4CCCCN4C)C[C@H]3C)c(-c3nc(C)no3)c(C)c2c1` [Compound 188], for which, in experiment [1], the “Selectivity (MOR/KOR)” value is “+++ (between 100- to 1000-fold selective)” and the pIC50 was 7.00 to 8.00. For the same compound, the negative logarithm of the IC50 (pIC50) on mu opioid receptor (MOR) was less than 6.00.

With `CCc1cc(F)c2nc(N3CCN(C(=O)[C@H]4CCCCN4C)C[C@H]3C)c(-c3nc(C)no3)c(C)c2c1` [Compound 189], in experiment [1], the “Selectivity (MOR/KOR)” value is “++++ (more than 1000-fold selectivity over MOR)” and the pIC50 was 8.00 to 9.00. Moreover, at mu opioid receptor (MOR), the pIC50 is less than 6.00.

On to `CCc1cc(F)c2nc(N3CCN(C(=O)CCN4CCCC4)C[C@H]3C)c(-c3nc(C)no3)c(C)c2c1` [Compound 190], for which, in experiment [1], the “Selectivity (MOR/KOR)” value is “++ (between 10- and 100-fold selectivity)”; the pIC50 was 8.00 to 9.00. In addition, at mu opioid receptor (MOR), the pIC50 was 6.00 to 7.00.

As for `CCc1cc(F)c2nc(N3CCN(C(=O)[C@H](C)N4CCCC4)C[C@H]3C)c(-c3nc(C)no3)c(C)c2c1` [Compound 191], in experiment [1], the “Selectivity (MOR/KOR)” value is reported as “++++ (more than 1000-fold selectivity over MOR)” and the pIC50 was 8.00 to 9.00. Also, the negative-log IC50 (pIC50) on mu opioid receptor (MOR) is less than 6.00.

Take `CCc1cc(F)c2nc(N3CC[C@@H](N[C@@H]4CCOC4)[C@@H](F)C3)c(-c3ccn(C)n3)c(C)c2c1` [Compound 192, (3S,4R)-1-(6-ethyl-8-fluoro-4-methyl-3-(1-methyl-1H-pyrazol-3-yl)quinolin-2-yl)-3-fluoro-N—((R)-tetrahydrofuran-3-yl)piperidin-4-amine]: in experiment [1], the “Selectivity (MOR/KOR)” value is “++++ (more than 1000-fold selectivity over MOR)” and the pIC50 is more than 9.00. The pIC50 against mu opioid receptor (MOR) is less than 6.00.

Take `CCc1cc(F)c2nc(N3CC[C@@H](N[C@H]4CCOC4)[C@@H](F)C3)c(-c3ccn(C)n3)c(C)c2c1` [Compound 193, (3S,4R)-1-(6-ethyl-8-fluoro-4-methyl-3-(1-methyl-1H-pyrazol-3-yl)quinolin-2-yl)-3-fluoro-N—((S)-tetrahydrofuran-3-yl)piperidin-4-amine]: in experiment [1], the “Selectivity (MOR/KOR)” value is “++++ (more than 1000-fold selectivity over MOR)” and the pIC50 was more than 9.00. The pIC50 at mu opioid receptor (MOR) was less than 6.00.

As for `CCc1cc(F)c2nc(N3CC[C@H](N[C@@H]4CCOC4)[C@H](F)C3)c(-c3ccn(C)n3)c(C)c2c1` [Compound 194, (3R,4S)-1-(6-ethyl-8-fluoro-4-methyl-3-(1-methyl-1H-pyrazol-3-yl)quinolin-2-yl)-3-fluoro-N—((R)-tetrahydrofuran-3-yl)piperidin-4-amine], in experiment [1], the “Selectivity (MOR/KOR)” value was “+++ (between 100- to 1000-fold selective)” and the pIC50 is 8.00 to 9.00. The compound also had a pIC50 on mu opioid receptor (MOR) of less than 6.00.

Turning to `CCc1cc(F)c2nc(N3CC[C@H](N[C@@H]4CCOC4)[C@@H](F)C3)c(-c3ccn(C)n3)c(C)c2c1` [Compound 195, (3S,4S)-1-(6-ethyl-8-fluoro-4-methyl-3-(1-methyl-1H-pyrazol-3-yl)quinolin-2-yl)-3-fluoro-N—((R)-tetrahydrofuran-3-yl)piperidin-4-amine], the “Selectivity (MOR/KOR)” value in experiment [1] is on record as “++++ (more than 1000-fold selectivity over MOR)”. Also, the pIC50 in experiment [1] is 8.00 to 9.00; against mu opioid receptor (MOR) it was less than 6.00.
